Laboratory results reported in patent US20160278375A1, “BISCATIONIC AND TRISCATIONIC AMPHIPHILES AS ANTIMICROBIAL AGENTS” (Temple University of the Commonwealth System of Higher …, priority 2013, published 2016).
Read-outs that look alike come from different tables or passages of the source.

Key:
Test in all cases: MIC determination by two-fold serial dilution in 96-well microtiter plates
Format in all cases: cell-based
[1] = test system: Pseudomonas aeruginosa (PAO1-WT)
Procedure: (§1) For the compounds above, respective minimum inhibitory concentration (MIC) values against the Gram-positive S. aureus, E. faecalis, Gram-negative E. coli and P. aeruginosa were determined, respectively, by standard methods. […] Cell viability was verified by serial dilution and plating on MH agar. Both aqueous and fresh media positive controls were performed for each trial. Overnight bacterial cultures of Staphylococcus aureus (SH1000), Enterococcus faecalis (OG1RF), Escherichia coli (MC4100), and Pseudomonas aeruginosa (PAO1-WT) were grown in Mueller-Hinton broth at 37° C., with all but E. faecalis under shaking Overnight cultures were diluted to approximately 10^6 cfu/mL as determined by OD measurement at 640 nm and plating on MH agar.
(§2) Each compound was serially diluted two-fold with water from 1 mM down to 1 μM yielding twelve dilutions per compound. In triplicate, 100 µL of each dilution were pipetted into the appropriate well of a 96-well microtiter plate, and then […] of overnight bacterial culture diluted to ca. 10^6 cfu/mL were inoculated into each well. Microtiter plates were incubated at 37° C. for 72 hours. Up to seven compounds were tested against one bacterial species at twelve decreasing concentrations per 96-well plate.

[2] = test system: Escherichia coli (MC4100); conditions: for MIC: Escherichia coli
Procedure: as §1, §2

[3] = test system: Staphylococcus aureus (SH1000)
Procedure: as §1, §2

[4] = test system: Enterococcus faecalis (OG1RF)
Procedure: as §1, §2

[5] = Pseudomonas aeruginosa, PAO1, Table 1, 37° C., 72 hours, read-out: MIC, Gram negative P. aeruginosa
[6] = 72 h, read-out: MIC, Gram negative E. coli
[7] = Staphylococcus aureus, Table 1, 37° C., 72 hours, read-out: MIC, Gram positive S. aureus
[8] = Enterococcus faecalis, Table 1, 37° C., 72 hours, read-out: MIC, Gram positive E. faecalis
[9] = Table 1, 37° C., 72 hours, read-out: MIC, Gram negative E. coli

SMILES	MIC [1, 5] [µM]	MIC [2, 6] [µM]	MIC [3, 7] [µM]	MIC [4, 8] [µM]	also measured
CCCCCCCCCCCCCCCCCC[N+](C)(C)CC[N+](C)(C)CCCCCCCC [(18, 2, 8)]	32	8	2	2	–
CCCCCCCCCCCCCC[N+](C)(C)CC[N+](C)(C)CCCCCCCC [(14, 2, 8)]	4	2	1	2	–
CCCCCCCCCCCCC[N+](C)(C)CC[N+](C)(C)CCCCCCCCCC [Compound (13, 2, 10)]	2	2	1	1	–
CCCCCCCCCCCCCC[N+](C)(C)CCN(C)CC[N+](C)(C)CCCCCCCCCCCCCC [14, 2, 0, 2, 14]	–	–	–	–	MIC ([1]; Pseudomonas aeruginosa, PAO1, Table 2, trisamine compounds, read-out: MIC P aeruginosa): 32 µM; MIC ([2]; read-out: MIC E. coli): 4 µM; MIC ([3]; Staphylococcus aureus, Table 2, trisamine compounds, read-out: MIC S. aureus): 2 µM; MIC ([4]; Enterococcus faecalis, Table 2, trisamine compounds, read-out: MIC E faecalis): 2 µM
CCCCCCCC[N+](C)(C)CC[N+](C)(C)CCCCCCCC [(8, 2, 8)]	500	250	32	500	–
CCCCCCCCCCCCCCCCCCCC[N+](C)(C)CCN(C)C [(20, 2, 0)]	125	–	4	4	MIC [2, 9]: 63 µM
CCCCCCCCCCCC[N+](C)(C)CCN(C)CC[N+](C)(C)CCCCCCCCCCCC.[Br-].[Br-] [12, 2, 0, 2, 12]	–	–	–	–	MIC ([1]; Table 2, trisamine compounds, read-out: MIC P aeruginosa): 4 µM; MIC E. coli ([2]; Table 2, trisamine compounds): 1 µM; MIC ([3]; Table 2, trisamine compounds, read-out: MIC S. aureus): 1 µM; MIC ([4]; Table 2, trisamine compounds, read-out: MIC E faecalis): 2 µM
CCCCCCCCCCCCCCCCCC[N+](C)(C)CC[N+](C)(C)CCCCCCCCCCCCCC [(18, 2, 14)]	63	16	8	16	–
CCCCCCCCCCCC[N+](C)(C)CCN(C)C [(12, 2, 0)]	250	–	32	63	MIC [2, 9]: 63 µM
CCCCCCCCCCCCCCCCCC[N+](C)(C)CC[N+](C)(C)CCCCCCCCCC [(18, 2, 10)]	32	16	4	2	–
CCCCCCCCCCCCCCCCCC[N+](C)(C)CCN(C)C [(18, 2, 0)]	–	–	2	4	MIC ([1]; Table 1, 37° C., 72 hours, read-out: MIC, Gram negative P. aeruginosa): 63 µM; MIC [2, 9]: 63 µM
CCCCCCCCCCC[N+](C)(C)CC[N+](C)(C)CCCCCCCCCC [(11, 2, 10)]	–	4	–	–	MIC ([1]; Pseudomonas aeruginosa, PAO1, 72 h, read-out: MIC, Gram negative P. aeruginosa): 4 µM; MIC ([3]; Staphylococcus aureus, 72 h, read-out: MIC, Gram positive S. aureus): 1 µM; MIC ([4]; Enterococcus faecalis, 72 h, read-out: MIC, Gram positive E. faecalis): 4 µM
CCCCCCCCCCCCCC[N+](C)(C)CC[N+](C)(C)CCCCCCCCCCCCCC [(14, 2, 14)]	32	4	4	2	–
CCCCCCCCCCCCCCCCCC[N+](C)(C)CC[N+](C)(C)CCCCCCCCCCCC [(18, 2, 12)]	32	16	4	4	–
CCCCCCCCCCCCCCCCCCCC[N+](C)(C)CC[N+](C)(C)CCCCCCCCCCCC [(20, 2, 12)]	63	32	8	4	–
CCCCCCCCCCCCCCCC[N+](C)(C)CC[N+](C)(C)CCCCCCCCCCCCCC [(16, 2, 14)]	63	16	8	2	–
CCCCCCCCCCCCCCCC[N+](C)(C)CC[N+](C)(C)CCCCCCCCCCCCCCCC [(16, 2, 16)]	63	32	8	8	–
CCCCCCCCCCCCCCCCCCCC[N+](C)(C)CC[N+](C)(C)CCCCCCCC [(20, 2, 8)]	32	16	4	4	–
CCCCCCCCCCCCCCCC[N+](C)(C)CC[N+](C)(C)CCCCCCCC [(16, 2, 8)]	4	2	2	2	–
CCCCCCCCCCCCCCCCCCCC[N+](C)(C)CC[N+](C)(C)CCCCCCCCCCCCCC [(20, 2, 14)]	63	16	8	16	–
CCCCCCCCCCCC[N+](C)(C)CC[N+](C)(C)CCCCCCCCCCCC [(12, 2, 12)]	4	2	1	1	–
